Results published in patent publication US8143424B2, “Thyroid like compounds” (Torrent Pharmaceuticals Ltd., priority 2007, dated 2012).

Tests used:
[1] = test system: C57BL6 mice fed High Fat Diet; assay: Oxygen consumption (Oxymax indirect calorimeter) in High Fat Diet fed mice; format: in vivo; details: Dose 11 μM/kg intraperitoneally, day 8, % change vs vehicle; for change in vivo at 11 µM, 11 µmol/kg: Mus musculus, ip, 192 h, read-out: increase in O2 cons
Procedure: (§1) C57BL6 mice (14-18 weeks age), fed for 8-12 weeks with High Fat Diet (45% kcal fat) were used for the study. The mice were placed in individual housing for one week. The mice were then kept in oxymax cages for 48 h for acclimatization. Basal recordings of oxygen consumption and carbon dioxide production for each mouse were recorded with indirect open circuit calorimeter (Oxymax, Columbus Instruments, USA (Ling fu et al., Endocrinology (2004); 145 (6); 2591-3). On the basis of body weight and basal oxygen consumption, mice were randomized and divided into two groups. • I) Vehicle treated group • II) Test compound treated group
(§2) The mice were treated with vehicle and test compounds intraperitoneally for 7-15 days. On the day 8, Oxygen consumption was measured for individual mouse 30 min after the drug treatment and % change with respect to vehicle is calculated.

[2] = test system: C57BL6 mice fed High Fat Diet; assay: Heart weight in High Fat Diet fed mice; format: in vivo; details: Dose 11 μM/kg intraperitoneally, end of experiment
Procedure: as §1, §2
(§3) During the experiment food consumption was monitored daily. At the end of the experiment the animals were scarified and the heart weights were recorded.

[3] = test system: C57BL6 mice fed High Fat Diet; assay: Food consumption in High Fat Diet fed mice; format: in vivo; details: Dose 11 μM/kg intraperitoneally, 7-15 days
Procedure: as §1, §2, §3

THR β1 = biological target: T1, THR β1 (Homo sapiens, UniProt P10828); assay: Thyroid β1 transactivation (TRE reporter, luciferase) in COS7 cells; format: cell-based; details: Conc. 20 uM, 24 hours, vs vehicle control
T1 construct: GAL4 (plasmid pGAL4); expressed in transfected cells; host or cells: COS7
T1 sequence (P10828 1-461): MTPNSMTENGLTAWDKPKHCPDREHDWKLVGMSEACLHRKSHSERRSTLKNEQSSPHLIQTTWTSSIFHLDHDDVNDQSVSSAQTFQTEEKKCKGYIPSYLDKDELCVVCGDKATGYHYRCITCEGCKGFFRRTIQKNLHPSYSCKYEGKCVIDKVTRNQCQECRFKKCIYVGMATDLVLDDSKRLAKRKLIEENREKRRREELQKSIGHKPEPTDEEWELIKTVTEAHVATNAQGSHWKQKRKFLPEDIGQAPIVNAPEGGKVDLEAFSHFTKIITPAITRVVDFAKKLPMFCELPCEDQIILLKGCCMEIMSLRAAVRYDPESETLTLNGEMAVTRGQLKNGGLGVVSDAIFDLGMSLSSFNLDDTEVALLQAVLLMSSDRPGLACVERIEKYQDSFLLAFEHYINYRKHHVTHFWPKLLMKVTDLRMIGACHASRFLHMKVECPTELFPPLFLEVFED
Procedure: (§4) Compounds of the present invention were tested for their effect on O2 consumption (metabolic effect), LDL cholesterol, glucose levels, insulin levels and food consumption (appetite stimulant) and also to assess transcriptional activity of thyroid hormone receptor by in vitro TRE (Thyroid receptor element) reporter assay for TRα1 and TRβ1.
(§5) COS7 cells were transiently transfected with pGAL4 […]/Thyroid α1 or pGAL4/Thyroid β1 and pLuc Pur. The cells were cotransfected with pLacZNorm for normalization of transfection efficiency. Transfected cells were then treated with different concentrations of compounds of present invention, vehicle for 24 hours.
(§6) Cells were the lysed and luciferase activity was monitored in all samples. Results were expressed as fold activation as compared to vehicle control.
(§7) Results: Thyroid(α1/β1) transactivation in COS7 cells.

THR α1 = biological target: T2, THR α1 (Homo sapiens, UniProt P10827); assay: Thyroid α1 transactivation (TRE reporter, luciferase) in COS7 cells; format: cell-based; details: Conc. 20 uM, 24 hours, vs vehicle control
T2 construct: GAL4 (plasmid pGAL4); expressed in transfected cells; host or cells: COS7
T2 sequence (P10827 1-410 isoform P10827-2): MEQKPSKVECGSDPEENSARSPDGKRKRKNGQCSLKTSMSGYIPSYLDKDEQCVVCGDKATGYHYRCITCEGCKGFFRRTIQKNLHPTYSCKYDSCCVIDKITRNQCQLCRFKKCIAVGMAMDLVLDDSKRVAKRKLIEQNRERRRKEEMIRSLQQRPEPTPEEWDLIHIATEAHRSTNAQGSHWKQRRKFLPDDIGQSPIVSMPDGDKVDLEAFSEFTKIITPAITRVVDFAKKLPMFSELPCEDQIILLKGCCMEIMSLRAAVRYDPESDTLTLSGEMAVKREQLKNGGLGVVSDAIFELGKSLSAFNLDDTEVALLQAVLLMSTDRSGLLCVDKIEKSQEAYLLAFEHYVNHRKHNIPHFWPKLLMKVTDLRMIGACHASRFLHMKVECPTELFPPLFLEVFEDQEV
Procedure: as §4, §5, §6, §7

increase in Heart weight with reference to vehicle [2]	increase in food consumption with reference to vehicle [3]	β1 Fold Activation (THR β1) [Fold]	α1 Fold Activation (THR α1) [Fold]	Molecule	change in vivo at 11 µM, 11 µmol/kg [1] [%]	increase in O2 cons [1]
No change	No change			Cc1nn(CC(=O)Nc2nnn[nH]2)c(C)c1Oc1ccc(O)c2c1CCC2 [Compound 6, 2-[4-(7-Hydroxy-indan-4-yloxy)-3,5-dimethyl-pyrazol-1-yl]-N-(1H-tetrazol-5-yl)-acetamide]	< 5	
No change	No change	1	3	7-[1-(1H-Tetrazol-5-ylmethyl)-3-thiophen-2-yl-1H-pyrazol-4-yloxy]-indan-4-ol And 7-[1-(1H-Tetrazol-5-ylmethyl)-5-thiophen-2-yl-1H-pyrazol-4-yloxy]-indan-4-ol [Compound 8]		** (** = Increase > 5%)
No change	No change	1	1	Cc1nn(Cc2nnn[nH]2)c(C)c1Oc1ccc(O)c2c1CCC2 [Compound 3, 7-[3,5-Dimethyl-1-(1H-tetrazol-5-ylmethyl)-1H-pyrazol-4-yloxy]-indan-4-ol]	> 5	
No change	No change	1	1	Cc1nn(CCC(=O)O)c(C)c1Cc1ccc2[nH]ccc2c1 [Compound 2, 3-[4-(1H-Indol-5-ylmethyl)-3,5-dimethyl-pyrazol-1-yl]-propionic acid]	< 5	
No change	No change			3-[4-(7-Hydroxy-indan-4-yloxy)-3-thiophen-2-yl-pyrazol-1-yl]-propionic acid And 3-[4-(7-Hydroxy-indan-4-yloxy)-5-thiophen-2-yl-pyrazol-1-yl]-propionic acid [Compound 7]		** (** = Increase > 5%)
No change	No change			COc1c(C)cc(Cc2c(C)nn(CCC(=O)O)c2C)c2c1CCC2 [Compound 14, 3-[4-(7-Methoxy-6-methyl-indan-4-ylmethyl)-3,5-dimethyl-pyrazol-1-yl]-propionic acid]	< 5	
No change	No change			CCc1nn(CCC(=O)O)c(CC)c1Cc1cc(C)c(O)c2c1CCC2 [Compound 20, 3-[3,5-Diethyl-4-(7-hydroxy-6-methyl-indan-4-ylmethyl)-pyrazol-1-yl]-propionic acid]	> 5	
No change	No change	1	1	Cc1nn(CCC(=O)O)c(C)c1Oc1ccc(O)c2c1CCC2 [Compound 1, 3-[4-(7-Hydroxy-indan-4-yloxy)-3,5-dimethyl-pyrazol-1-yl]-propionic acid]	< 5	
No change	No change			CCc1nn(CC(=O)O)c(CC)c1Cc1cc(C)c(O)c2c1CCC2 [Compound 19, [3,5-Diethyl-4-(7-hydroxy-6-methyl-indan-4-ylmethyl)-pyrazol-1-yl]-acetic acid]	> 5	
No change	No change	2	2.5	Cc1cc(Cc2c(C)nn(CCC(=O)O)c2C)c2c(c1O)CCC2 [Compound 9, 3-[4-(7-Hydroxy-6-methyl-indan-4-ylmethyl)-3,5-dimethyl-pyrazol-1-yl]-propionic acid]	> 5	
